The record followed here is patent US20210395239A1 (Hoffmann-La Roche Inc., priority 2018, published 2021).

Molecules are shown by their SMILES.

The target of the assay is T1, human TLR8 (Homo sapiens, UniProt Q9NR97).
T1 construct: host or cells: HEK293 (HEK-Blue hTLR8)
T1 sequence (Q9NR97 27-1041): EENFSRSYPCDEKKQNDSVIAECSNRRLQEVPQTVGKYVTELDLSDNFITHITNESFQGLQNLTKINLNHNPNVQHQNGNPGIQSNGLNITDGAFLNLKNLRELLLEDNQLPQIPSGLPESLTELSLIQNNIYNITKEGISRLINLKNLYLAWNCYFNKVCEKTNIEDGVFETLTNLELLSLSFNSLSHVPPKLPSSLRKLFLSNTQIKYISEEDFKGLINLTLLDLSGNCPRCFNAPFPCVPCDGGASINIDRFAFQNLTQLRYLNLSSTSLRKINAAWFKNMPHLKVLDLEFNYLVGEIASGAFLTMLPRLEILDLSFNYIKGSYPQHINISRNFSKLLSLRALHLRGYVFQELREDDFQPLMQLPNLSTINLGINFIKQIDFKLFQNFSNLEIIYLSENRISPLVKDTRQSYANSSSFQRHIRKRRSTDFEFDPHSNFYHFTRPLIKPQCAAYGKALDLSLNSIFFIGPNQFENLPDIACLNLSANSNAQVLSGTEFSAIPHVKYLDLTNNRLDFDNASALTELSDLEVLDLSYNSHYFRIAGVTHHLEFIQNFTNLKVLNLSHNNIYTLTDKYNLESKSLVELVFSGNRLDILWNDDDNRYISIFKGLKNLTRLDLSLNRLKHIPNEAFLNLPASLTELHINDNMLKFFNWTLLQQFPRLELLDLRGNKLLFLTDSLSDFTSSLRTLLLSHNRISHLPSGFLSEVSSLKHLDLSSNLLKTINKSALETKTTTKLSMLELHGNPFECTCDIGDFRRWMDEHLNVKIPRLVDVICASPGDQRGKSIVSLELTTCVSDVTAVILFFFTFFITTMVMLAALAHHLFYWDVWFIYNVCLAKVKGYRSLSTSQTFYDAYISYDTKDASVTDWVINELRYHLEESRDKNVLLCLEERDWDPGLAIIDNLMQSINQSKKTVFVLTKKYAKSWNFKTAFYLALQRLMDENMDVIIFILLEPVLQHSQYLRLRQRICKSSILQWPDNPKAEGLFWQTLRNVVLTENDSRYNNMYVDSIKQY
Kind of assay: HEK293-Blue-hTLR-8 cells assay (SEAP reporter, R848 stimulation). The assay is classed as cell-based. The conditions noted are these: HEK293-Blue-hTLR8 cells, R848, 20 hrs; read-out: HEK/hTLR8 IC50. Summed up:
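Antagonism read as reduced R848-induced SEAP reporter secretion, detected by QUANTI-Blue absorbance at 620–655 nm after 2 h. Reporter cells were exposed to compound dilutions in DMEM/10% FBS, 1% DMSO, for 20 h at 37° C.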
For `C[C@@H]1CN(c2ccc(C#N)n3ncc(F)c23)C[C@H](CN2CCN(c3ccc(C4CNCCO4)cc3F)CC2)O1` (stereo in doubt) [Example 183, 3-fluoro-4-[(2S,6R)-2-[[4-[2-fluoro-4-[(2S)-morpholin-2-yl]phenyl]piperazin-1-yl]methyl]-6-methyl-morpholin-4-yl]pyrazolo[1,5-a]pyridine-7-carbonitrile], the IC50 is 13 nM. Under `Cc1cc(N2CCN(C[C@H]3CN(c4ccc(C#N)c5ncccc45)C[C@@H](C)O3)CC2)nc(N2CC(N)C(F)C2)n1` (stereo in doubt) [Example 54, 5-[(2S,6R)-2-[[4-[2-[(3S,4R)-3-amino-4-fluoro-pyrrolidin-1-yl]-6-methyl-pyrimidin-4-yl]piperazin-1-yl]methyl]-6-methyl-morpholin-4-yl]quinoline-8-carbonitrile] stands 3 nM. The figure for `C[C@@H]1CN(c2cc(=O)n(C)c3ncccc23)C[C@H](CN2CC(c3ccc(N4CCNCC4)cc3)C2)O1` [Example 171, 1-methyl-4-[(2R,6S)-2-methyl-6-[[3-(4-piperazin-1-ylphenyl)azetidin-1-yl]methyl]morpholin-4-yl]-1,8-naphthyridin-2-one] is 129 nM; for `C[C@@H]1CN(c2ccc(C#N)c3ncccc23)C[C@H](CN2CCN(c3ccnc(N4CCNCC(O)C4)n3)CC2)O1` (stereo partly drawn) [Example 25, 5-[(2S,6R)-2-[[4-[2-(6-hydroxy-1,4-diazepan-1-yl)pyrimidin-4-yl]piperazin-1-yl]methyl]-6-methyl-morpholin-4-yl]quinoline-8-carbonitrile] it is 7 nM.

`C[C@@H]1CN(c2ccc(C#N)c3ncccc23)C[C@H](CN2CCN(c3ccc(N4CCNCC4)cn3)CC2)O1` [Example 8, 5-[(2R,6S)-2-methyl-6-[[4-(5-piperazin-1-yl-2-pyridyl)piperazin-1-yl]methyl]morpholin-4-yl]quinoline-8-carbonitrile]: the IC50 worked out at 10 nM.

`C[C@@H]1CN(c2ccc(C#N)c3ncccc23)C[C@H](CN2CCN(c3nc(N4CCNCC4)nc4ccccc34)CC2)O1` [Example 49, 5-[(2R,6S)-2-methyl-6-[[4-(2-piperazin-1-ylquinazolin-4-yl)piperazin-1-yl]methyl]morpholin-4-yl]quinoline-8-carbonitrile]: the IC50 turned out to be 10 nM. In the case of `C[C@@H]1CN(c2ccc(C#N)c3ncccc23)C[C@H](CN2CCN(c3cc(N4CCN(C)CC4)ncn3)CC2)O1` [Example 21, 5-[(2R,6S)-2-methyl-6-[[4-[6-(4-methylpiperazin-1-yl)pyrimidin-4-yl]piperazin-1-yl]methyl]morpholin-4-yl]quinoline-8-carbonitrile], the IC50 stood at 10 nM.

Regarding `C[C@@H]1CN(c2ccc(C#N)c3ncccc23)C[C@H](CN2CCN(c3cccc(N[C@H]4CNC[C@H]4F)n3)CC2)O1` [Example 37, 5-[(2S,6R)-2-[[4-[6-[[(3S,4R)-4-fluoropyrrolidin-3-yl]amino]-2-pyridyl]piperazin-1-yl]methyl]-6-methyl-morpholin-4-yl]quinoline-8-carbonitrile], the IC50 was determined as 30 nM. The figure for `Cc1cc(N2CCN(C[C@H]3CN(c4ccc(C(F)(F)F)c5nccnc45)C[C@@H](C)O3)CC2)nc(N2CCNCC2)n1` [Example 65, (2R,6S)-2-methyl-6-[[4-(6-methyl-2-piperazin-1-yl-pyrimidin-4-yl)piperazin-1-yl]methyl]-4-[8-(trifluoromethyl)quinoxalin-5-yl]morpholine] is 9 nM.

`C[C@@H]1CN(c2ccc(C#N)c3ncccc23)C[C@H](CN2CCN(c3cnc(N4CCNCC4)nc3)CC2)O1` [Example 12, 5-[(2R,6S)-2-methyl-6-[[4-(2-piperazin-1-ylpyrimidin-5-yl)piperazin-1-yl]methyl]morpholin-4-yl]quinoline-8-carbonitrile]: the IC50 was 3 nM. Under `C[C@@H]1CN(c2ccc(C#N)n3ncc(F)c23)C[C@H](CN2CCN(c3ccc(N4C[C@H]5NCCO[C@@H]5C4)nc3)CC2)O1` [Example 168, 4-[(2S,6R)-2-[[4-[6-[(4aR,7aR)-3,4,4a,5,7,7a-hexahydro-2H-pyrrolo[3,4-b][1,4]oxazin-6-yl]-3-pyridyl]piperazin-1-yl]methyl]-6-methyl-morpholin-4-yl]-3-fluoro-pyrazolo[1,5-a]pyridine-7-carbonitrile] stands 57 nM; under `C[C@@H]1CN(c2ccc(C#N)c3ncccc23)C[C@H](CN2CCN(c3ccnc(N4CCN(C)CC4)n3)CC2)O1` [Example 22, 5-((2R,6S)-2-methyl-6-((4-(2-(4-methylpiperazin-1-yl)pyrimidin-4-yl)piperazin-1-yl)methyl)morpholino)quinoline-8-carbonitrile], 3 nM. With `COC1CN(c2ccc(N3CCN(C[C@H]4CN(c5ccc(C#N)c6ncccc56)C[C@@H](C)O4)CC3)cn2)CC1N` (stereo partly drawn) [Example 43, 5-[(2S,6R)-2-[[4-[6-(3-amino-4-methoxy-pyrrolidin-1-yl)-3-pyridyl]piperazin-1-yl]methyl]-6-methyl-morpholin-4-yl]quinoline-8-carbonitrile], the IC50 stood at 11 nM. Under `Cc1cc(N2CCN(C[C@H]3CN(c4ccc(C#N)c5ncccc45)C[C@@H](C)O3)CC2)nc(N2CC3(CNCCO3)C2)n1` [Example 61, 5-[(2R,6S)-2-methyl-6-[[4-[6-methyl-2-(5-oxa-2,8-diazaspiro[3.5]nonan-2-yl)pyrimidin-4-yl]piperazin-1-yl]methyl]morpholin-4-yl]quinoline-8-carbonitrile] stands 3 nM; under `C[C@@H]1CN(c2cc(=O)n(C)c3ncccc23)C[C@H](CN2CC(c3ccc(N4CC5(CNCCO5)C4)cc3)C2)O1` [Example 173, 1-methyl-4-[(2R,6S)-2-methyl-6-[[3-[4-(5-oxa-2,8-diazaspiro[3.5]nonan-2-yl)phenyl]azetidin-1-yl]methyl]morpholin-4-yl]-1,8-naphthyridin-2-one], 74 nM; under `C[C@@H]1CN(c2cc(=O)n(C)c3ncccc23)C[C@H](CN2CC(c3ccc(N4CC5(CN(C)C5)C4)cc3)C2)O1` [Example 180, 1-methyl-4-[(2R,6S)-2-methyl-6-[[3-[4-(6-methyl-2,6-diazaspiro[3.3]heptan-2-yl)phenyl]azetidin-1-yl]methyl]morpholin-4-yl]-1,8-naphthyridin-2-one], 77 nM. The figure for `COC1CNC[C@H]1Nc1cccc(N2CCN(C[C@H]3CN(c4ccc(C#N)c5ncccc45)C[C@@H](C)O3)CC2)n1` (stereo in doubt) [Example 39, 5-[(2S,6R)-2-[[4-[6-[[(3R,4R)-4-methoxypyrrolidin-3-yl]amino]-2-pyridyl]piperazin-1-yl]methyl]-6-methyl-morpholin-4-yl]quinoline-8-carbonitrile] is 23 nM.

Regarding `C[C@@H]1CN(c2ccc(C#N)n3ncc(F)c23)C[C@H](CN2CCN(c3ccc(N4CC[C@@H](N)[C@H](F)C4)nc3)CC2)O1` [Example 175, 4-[(2S,6R)-2-[[4-[6-[(3R,4R)-4-amino-3-fluoro-1-piperidyl]-3-pyridyl]piperazin-1-yl]methyl]-6-methyl-morpholin-4-yl]-3-fluoro-pyrazolo[1,5-a]pyridine-7-carbonitrile], the IC50 worked out at 12 nM. The figure for `C[C@@H]1CN(c2ccc(C#N)c3ncccc23)C[C@H](CN2CCN(c3ccnc(OCCN(C)C)n3)CC2)O1` [Example 30, 5-[(2S,6R)-2-[[4-[2-[2-(dimethylamino)ethoxy]pyrimidin-4-yl]piperazin-1-yl]methyl]-6-methyl-morpholin-4-yl]quinoline-8-carbonitrile] is 6 nM.
